# Measured values as given in patent US20240360119A1, “SMALL MOLECULE UREA DERIVATIVES AS STING ANTAGONISTS” (CURADEV PHARMA PVT. LTD., priority 2021, published 2024).
# Tested on: STING (IRF pathway reporter in THP1-Dual™ cells, THP-1 (HAQ))
# Experiment: Reporter gene expression assay in THP-1 cells (THP1-Dual, IRF pathway Lucia luciferase, 2′,3′-cGAMP stimulation)
# Type: cell-based, human
# Conditions: 10 min preincubation, 5 μM 2′,3′-cGAMP, 20 hr, IRF pathway luciferase (QUANTI-Luc), IC50 range class
# Procedure: THP1-Dual™ cells (Invivogen) were derived from the human THP-1 monocyte cell line by stable integration of two inducible reporter constructs. As a result, THP1-Dual™ cells allow the simultaneous study of the IRF pathway, by assessing the activity of a secreted luciferase (Lucia) and the NF-κB pathway, by monitoring the activity of secreted SEAP. 5×10^4 THP1-Dual™ cells were seeded in 384-well plates in growth medium and preincubated with novel compounds for 10 minutes followed by stimulation with 5 μM 2′,3′-cGAMP. After 20 hr of stimulation the supernatant was removed and the IRF pathway reporter protein was readily measured in the cell culture supernatant using QUANTI-Luc™ (Invivogen), a luciferase detection reagent on a Spectramax i3X luminometer.
# In the tables below, IC50 value ranges for exemplary compounds are given. The IC50 ranges are indicated as “A” for values less than or equal to 1 μM, “B” for values greater than 1 μM and less than or equal to 10 μM, and “C” for values greater than 10 μM.
row,SMILES,IC50 [µM]
1,"O=C(Nc1ccc2cc[nH]c2c1)NC(CC(O)CO)c1ccc2c(c1)N(Cc1ccccc1)CCO2 (single isomer, unassigned) [Example 8, 1-(1-(4-Benzyl-3,4-dihydro-2H-benzo[b][1,4]oxazin-6-yl)-3,4-dihydroxybutyl)-3-(1H-indol-6-yl)urea]",> 10
2,"O=C(Nc1ccc2cc[nH]c2c1)NC(CO)c1ccc2c(c1)N(Cc1ccccc1)CCS2 (single isomer, unassigned) [Example 13, 1-(1-(4-benzyl-3,4-dihydro-2H-benzo[b][1,4]thiazin-6-yl)-2-hydroxyethyl)-3-(1H-indol-6-yl)urea]",≤ 1
3,"CN(C)C(=O)CC(NC(=O)Nc1ccc2cc[nH]c2c1)c1ccc2c(c1)N(Cc1ccccc1)CCS2 (single isomer, unassigned) [Example 6, 3-(3-(1H-indol-6-yl)ureido)-3-(4-benzyl-3,4-dihydro-2H-benzo[b][1,4]thiazin-6-yl)-N,N-dimethylpropanamide]",1 to 10

# Same assay, conditions: Homo sapiens, 10 min preincubation, 5 μM 2′,3′-cGAMP, 20 hr, IRF pathway luciferase (QUANTI-Luc), IC50 range class
row,SMILES,IC50 [µM]
1,"CN(CCO)C(=O)CC(NC(=O)Nc1ccc2cc[nH]c2c1)c1ccc2c(c1)N(Cc1ccccc1)CCS2 (centres unmarked) [Example 31, 3-(3-(1H-indol-6-yl)ureido)-3-(4-benzyl-3,4-dihydro-2H-benzo[b][1,4]thiazin-6-yl)-N-(2-hydroxyethyl)-N-methylpropanamide]",1 to 10
2,"O=C(NCc1ccc2c(c1)N(Cc1ccccc1)CCS2)Nc1ccc2cc[nH]c2c1 [Example 1, 1-((4-Benzyl-3,4-dihydro-2H-benzo[b][1,4]thiazin-6-yl)methyl)-3-(1H-indol-6-yl)urea]",≤ 1
3,"O=C(NCc1ccc2c(c1)N(c1ccccc1)CCO2)Nc1ccc2cc[nH]c2c1 [Example 19, 1-(1H-indol-6-yl)-3-((4-phenyl-3,4-dihydro-2H-benzo[b][1,4]oxazin-6-yl)methyl)urea]",≤ 1
4,"O=C(NCc1ccc2c(c1)OCCN2c1ccccc1)Nc1ccc2cc[nH]c2c1 [Example 21, 1-(1H-indol-6-yl)-3-((4-phenyl-3,4-dihydro-2H-benzo[b][1,4]oxazin-7-yl)methyl)urea]",≤ 1
5,"CN(C)C(=O)CC(NC(=O)Nc1ccc2cc[nH]c2c1)c1ccc2c(c1)N(Cc1ccccc1)CCS2 (single isomer, unassigned) [Example 5, 3-(3-(1H-indol-6-yl)ureido)-3-(4-benzyl-3,4-dihydro-2H-benzo[b][1,4]thiazin-6-yl)-N,N-dimethylpropanamide]",1 to 10
6,"O=C(Nc1ccc2cc[nH]c2c1)NC(CC(=O)N1CCCC1)c1ccc2c(c1)N(Cc1ccccc1)CCS2 (centres unmarked) [Example 27, 1-(1-(4-benzyl-3,4-dihydro-2H-benzo[b][1,4]thiazin-6-yl)-3-oxo-3-(pyrrolidin-1-yl)propyl)-3-(1H-indol-6-yl)urea]",1 to 10
7,"C=CCC(NC(=O)Nc1ccc2cc[nH]c2c1)c1ccc2c(c1)N(Cc1c(F)cccc1Cl)CCS2 (centres unmarked) [Example 36, 1-(1-(4-(2-chloro-6-fluorobenzyl)-3,4-dihydro-2H-benzo[b][1,4]thiazin-6-yl)but-3-en-1-yl)-3-(1H-indol-6-yl)urea]",≤ 1
8,"O=C(Nc1ccc2cc[nH]c2c1)NC(CO)c1ccc2c(c1)N(Cc1ccccc1)CCS2 (single isomer, unassigned) [Example 12, 1-(1-(4-benzyl-3,4-dihydro-2H-benzo[b][1,4]thiazin-6-yl)-2-hydroxyethyl)-3-(1H-indol-6-yl)urea]",≤ 1
9,"O=C(NCc1ccc2c(c1)OCC(=O)N2Cc1ccccc1)Nc1ccc2cc[nH]c2c1 [Example 2, 1-((4-Benzyl-3-oxo-3,4-dihydro-2H-benzo[b][1,4]oxazin-7-yl)methyl)-3-(1H-indol-6-yl)urea]",1 to 10
10,"O=C(NCc1ccc2c(c1)N(Cc1ccccc1)C(=O)CS2)Nc1ccc2cc[nH]c2c1 [Example 18, 1-((4-benzyl-3-oxo-3,4-dihydro-2H-benzo[b][1,4]thiazin-6-yl)methyl)-3-(1H-indol-6-yl)urea]",1 to 10
11,"O=C(Nc1ccc2cc[nH]c2c1)NC(CC(=O)N1CCC(O)C1)c1ccc2c(c1)N(Cc1ccccc1)CCS2 (centres unmarked) [Example 29, 1-(1-(4-benzyl-3,4-dihydro-2H-benzo[b][1,4]thiazin-6-yl)-3-(3-hydroxypyrrolidin-1-yl)-3-oxopropyl)-3-(1H-indol-6-yl)urea]",> 10
12,"O=C(NCc1ccc2c(c1)SCC(=O)N2Cc1ccccc1)Nc1ccc2cc[nH]c2c1 [Example 17, 1-((4-benzyl-3-oxo-3,4-dihydro-2H-benzo[b][1,4]thiazin-7-yl)methyl)-3-(1H-indol-6-yl)urea]",≤ 1
13,"CN(C)C(=O)CC(NC(=O)Nc1ccc2cc[nH]c2c1)c1ccc2c(c1)N(Cc1ccccc1)CCS2 (racemic) [Example 4, 3-(3-(1H-indol-6-yl)ureido)-3-(4-benzyl-3,4-dihydro-2H-benzo[b][1,4]thiazin-6-yl)-N,N-dimethylpropanamide]",1 to 10
14,"O=C(Nc1ccc2cc[nH]c2c1)NC(CC(O)CO)c1ccc2c(c1)N(Cc1ccccc1)CCO2 (single isomer, unassigned) [Example 7, 1-(1-(4-Benzyl-3,4-dihydro-2H-benzo[b][1,4]oxazin-6-yl)-3,4-dihydroxybutyl)-3-(1H-indol-6-yl)urea]",> 10
15,"O=C(Nc1ccc2cc[nH]c2c1)NC(CC(O)CO)c1ccc2c(c1)N(Cc1ccccc1)CC[S+]2[O-] (centres unmarked) [Example 25, 1-(1-(4-benzyl-1-oxido-3,4-dihydro-2H-benzo[b][1,4]thiazin-6-yl)-3,4-dihydroxybutyl)-3-(1H-indol-6-yl)urea]",> 10
16,"NC(=O)CC(NC(=O)Nc1ccc2cc[nH]c2c1)c1ccc2c(c1)N(Cc1ccccc1)CCS2 (centres unmarked) [Example 23, 3-(3-(1H-indol-6-yl)ureido)-3-(4-benzyl-3,4-dihydro-2H-benzo[b][1,4]thiazin-6-yl)propanamide]",≤ 1
17,"O=C(NCc1ccc2c(c1)N(c1ccccc1)CCS2)Nc1ccc2cc[nH]c2c1 [Example 14, 1-(1H-Indol-6-yl)-3-((4-phenyl-3,4-dihydro-2H-benzo[b][1,4]thiazin-6-yl)methyl)urea]",≤ 1
18,"O=C(Nc1ccc2cc[nH]c2c1)NC(CC(=O)N1CCOCC1)c1ccc2c(c1)N(Cc1ccccc1)CCS2 (centres unmarked) [Example 30, 1-(1-(4-benzyl-3,4-dihydro-2H-benzo[b][1,4]thiazin-6-yl)-3-morpholino-3-oxopropyl)-3-(1H-indol-6-yl)urea]",1 to 10
19,"CNC(=O)CC(NC(=O)Nc1ccc2cc[nH]c2c1)c1ccc2c(c1)N(Cc1ccccc1)CCS2 (centres unmarked) [Example 26, 3-(3-(1H-indol-6-yl)ureido)-3-(4-benzyl-3,4-dihydro-2H-benzo[b][1,4]thiazin-6-yl)-N-methylpropanamide]",1 to 10
20,"O=C(Nc1ccc2cc[nH]c2c1)NC(CCO)c1ccc2c(c1)N(Cc1ccccc1)CCS2 (centres unmarked) [Example 24, 1-(1-(4-benzyl-3,4-dihydro-2H-benzo[b][1,4]thiazin-6-yl)-3-hydroxypropyl)-3-(1H-indol-6-yl)urea]",> 10
21,"O=C(O)CC(NC(=O)Nc1ccc2cc[nH]c2c1)c1ccc2c(c1)N(Cc1ccccc1)CCS2 (centres unmarked) [Example 10, 3-(3-(1H-Indol-6-yl)ureido)-3-(4-benzyl-3,4-dihydro-2H-benzo[b][1,4]thiazin-6-yl)propanoic acid]",> 10
22,"O=C(NCc1ccc2c(c1)OCCN2Cc1ccccc1)Nc1ccc2cc[nH]c2c1 [Example 3, 1-((4-Benzyl-3,4-dihydro-2H-benzo[b][1,4]oxazin-7-yl)methyl)-3-(1H-indol-6-yl)urea]",≤ 1
23,"CON(C)C(=O)CC(NC(=O)Nc1ccc2cc[nH]c2c1)c1ccc2c(c1)N(Cc1ccccc1)CCS2 (centres unmarked) [Example 28, 3-(3-(1H-indol-6-yl)ureido)-3-(4-benzyl-3,4-dihydro-2H-benzo[b][1,4]thiazin-6-yl)-N-methoxy-N-methylpropanamide]",1 to 10
24,"CN(C(=O)CC(NC(=O)Nc1ccc2cc[nH]c2c1)c1ccc2c(c1)N(Cc1ccccc1)CCS2)C1CC1 (centres unmarked) [Example 32, 3-(3-(1H-indol-6-yl)ureido)-3-(4-benzyl-3,4-dihydro-2H-benzo[b][1,4]thiazin-6-yl)-N-cyclopropyl-N-methylpropanamide]",> 10
25,"O=C(NCc1ccc2c(c1)N(Cc1ccccc1)CCO2)Nc1ccc2cc[nH]c2c1 [Example 15, 1-((4-benzyl-3,4-dihydro-2H-benzo[b][1,4]oxazin-6-yl)methyl)-3-(1H-indol-6-yl)urea]",≤ 1
26,"C=CCC(NC(=O)Nc1c[nH]c2ccccc12)c1ccc2c(c1)N(Cc1ccccc1)CCS2 (centres unmarked) [Example 37, 1-(1-(4-benzyl-3,4-dihydro-2H-benzo[b][1,4]thiazin-6-yl)but-3-en-1-yl)-3-(1H-indol-3-yl)urea]",1 to 10
27,"O=C(NCc1ccc2c(c1)SCCN2Cc1ccccc1)Nc1ccc2cc[nH]c2c1 [Example 16, 1-((4-benzyl-3,4-dihydro-2H-benzo[b][1,4]thiazin-7-yl)methyl)-3-(1H-indol-6-yl)urea]",≤ 1
28,"O=C(CC(NC(=O)Nc1ccc2cc[nH]c2c1)c1ccc2c(c1)N(Cc1ccccc1)CCS2)Nc1cccnc1 (centres unmarked) [Example 34, 3-(3-(1H-indol-6-yl)ureido)-3-(4-benzyl-3,4-dihydro-2H-benzo[b][1,4]thiazin-6-yl)-N-(pyridin-3-yl)propanamide]",> 10
29,"O=C(Nc1ccc2cc[nH]c2c1)NC(CO)c1ccc2c(c1)N(Cc1ccccc1)CCS2 (racemic) [Example 11, 1-(1-(4-Benzyl-3,4-dihydro-2H-benzo[b][1,4]thiazin-6-yl)-2-hydroxyethyl)-3-(1H-indol-6-yl)urea]",≤ 1
